Data as given in ChEMBL document CHEMBL1144332, “1,2,4-Benzothiadiazine derivatives as alpha1 and 5-HT1A receptor ligands” (Bioorg Med Chem Lett, 2005).

Molecular target: T1, 5-hydroxytryptamine receptor 1A (Homo sapiens) (UniProt P08908)
T1 sequence (whole entry): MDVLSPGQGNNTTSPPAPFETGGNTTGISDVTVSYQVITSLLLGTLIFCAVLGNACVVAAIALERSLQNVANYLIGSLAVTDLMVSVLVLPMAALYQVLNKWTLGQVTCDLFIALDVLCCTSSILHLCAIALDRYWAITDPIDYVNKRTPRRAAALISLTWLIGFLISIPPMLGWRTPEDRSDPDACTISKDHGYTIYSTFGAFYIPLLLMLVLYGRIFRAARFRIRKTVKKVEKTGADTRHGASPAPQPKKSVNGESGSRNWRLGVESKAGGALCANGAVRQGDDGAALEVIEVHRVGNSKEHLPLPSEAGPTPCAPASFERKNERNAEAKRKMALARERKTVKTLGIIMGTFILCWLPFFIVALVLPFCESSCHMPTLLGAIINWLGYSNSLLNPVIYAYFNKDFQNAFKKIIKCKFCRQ
Test: The maximal stimulation of [35S]GTP-gamma-S, binding (Emax) against the 5-hydroxytryptamine 1A receptor
Format: functional
Compound COc1ccccc1N1CCN(CC2Nc3cc(Cl)ccc3S(=O)(=O)N2)CC1 (configuration not stated) has an Emax of 23. In the case of COc1ccccc1N1CCN(CCN2C(=O)CC3(CCCC3)CC2=O)CC1 [BMY-7378], the Emax is reported as 26.

Molecular target: Alpha adrenergic receptor 1A and 1B (Rattus norvegicus) (UniProt P15823+P43140)
Test: Selectivity towards alpha 1B and alpha 1A adrenergic receptors
Format: protein assay
Work on COc1ccccc1N1CCN(CC2Nc3cc(Cl)ccc3S(=O)(=O)N2)CC1 (configuration not stated) yielded a Selectivity of 1. With COc1ccccc1N1CCN(CC2=NS(=O)(=O)c3ccccc3N2)CC1 the Selectivity was > 3. In the case of COc1ccccc1N1CCN(CC2Nc3ccccc3S(=O)(=O)N2)CC1 (configuration not stated), the Selectivity is reported as 1.5. For COc1ccccc1N1CCN(CC2Nc3cc(C)ccc3S(=O)(=O)N2)CC1 (configuration not stated), the Selectivity was 2. In the case of COc1ccccc1N1CCN(CC2=NS(=O)(=O)c3ccc(C)cc3N2)CC1, the Selectivity is reported as > 11. With COc1ccccc1N1CCN(CC2=NS(=O)(=O)c3ccc(Cl)cc3N2)CC1 the Selectivity was 8.

Molecular target: Alpha adrenergic receptor 1A and 1D (Rattus norvegicus) (UniProt P23944+P43140)
Test: Selectivity towards alpha 1D and alpha 1A adrenergic receptors
Format: protein assay
COc1ccccc1N1CCN(CC2Nc3cc(Cl)ccc3S(=O)(=O)N2)CC1 (configuration not stated) gave a Selectivity of 1. For COc1ccccc1N1CCN(CC2=NS(=O)(=O)c3ccccc3N2)CC1, the Selectivity was > 389. For COc1ccccc1N1CCN(CC2Nc3ccccc3S(=O)(=O)N2)CC1 (configuration not stated), the Selectivity was 0.35. COc1ccccc1N1CCN(CC2Nc3cc(C)ccc3S(=O)(=O)N2)CC1 (configuration not stated) gave a Selectivity of 0.95. In the case of COc1ccccc1N1CCN(CC2=NS(=O)(=O)c3ccc(C)cc3N2)CC1, the Selectivity is reported as > 3. With COc1ccccc1N1CCN(CC2=NS(=O)(=O)c3ccc(Cl)cc3N2)CC1 the Selectivity was 295.

Organism: Rattus norvegicus
Test: Selectivity towards alpha 1D and alpha 1B adrenergic receptors
COc1ccccc1N1CCN(CC2Nc3cc(Cl)ccc3S(=O)(=O)N2)CC1 (configuration not stated) gave a Selectivity of 1. In the case of COc1ccccc1N1CCN(CC2=NS(=O)(=O)c3ccccc3N2)CC1, the Selectivity is reported as 135. In the case of COc1ccccc1N1CCN(CC2Nc3ccccc3S(=O)(=O)N2)CC1 (configuration not stated), the Selectivity is reported as 0.23. COc1ccccc1N1CCN(CC2Nc3cc(C)ccc3S(=O)(=O)N2)CC1 (configuration not stated) showed a Selectivity of 0.55. COc1ccccc1N1CCN(CC2=NS(=O)(=O)c3ccc(C)cc3N2)CC1 gave a Selectivity of 0.28. With COc1ccccc1N1CCN(CC2=NS(=O)(=O)c3ccc(Cl)cc3N2)CC1 the Selectivity was 38.

Molecular target: T1, 5-hydroxytryptamine receptor 1A (Homo sapiens)
Test: Potency against the 5-hydroxytryptamine 1A receptor determined by using [35S]GTP-gamma-S, binding
Format: functional
For COc1ccccc1N1CCN(CC2Nc3cc(Cl)ccc3S(=O)(=O)N2)CC1 (configuration not stated), the pD2 was 6.92. With COc1ccccc1N1CCN(CCN2C(=O)CC3(CCCC3)CC2=O)CC1 [BMY-7378] the pD2 was 9.27.

Molecular target: T2, 5-hydroxytryptamine receptor 1A (Homo sapiens, UniProt P08908)
T2 sequence (P08908 whole entry): T1 sequence (whole entry)
Test: Inhibitory constant value against 5-hydroxytryptamine 1A receptor
For COc1ccccc1N1CCN(CC2=NS(=O)(=O)c3ccccc3N2)CC1, the Ki was > 1000 nM.

Molecular target: T2, 5-hydroxytryptamine receptor 1A
Test: Inhibitory constant value against the 5-hydroxytryptamine 1A receptor
With COc1ccccc1N1CCN(CC2Nc3cc(Cl)ccc3S(=O)(=O)N2)CC1 (configuration not stated) the Ki was 9.12 nM. In the case of COc1ccccc1N1CCN(CC2Nc3ccccc3S(=O)(=O)N2)CC1 (configuration not stated), the Ki is reported as 16.6 nM. Compound COc1ccccc1N1CCN(CC2=NS(=O)(=O)c3ccc(C)cc3N2)CC1 has a Ki of 107 nM. For COc1ccccc1N1CCN(CC2=NS(=O)(=O)c3ccc(Cl)cc3N2)CC1, the Ki was 46.8 nM. COc1ccccc1N1CCN(CCN2C(=O)CC3(CCCC3)CC2=O)CC1 [BMY-7378] showed a Ki of 1.26 nM.

Molecular target: T3, Alpha-1B adrenergic receptor (Rattus norvegicus) (UniProt P15823)
T3 sequence (whole entry): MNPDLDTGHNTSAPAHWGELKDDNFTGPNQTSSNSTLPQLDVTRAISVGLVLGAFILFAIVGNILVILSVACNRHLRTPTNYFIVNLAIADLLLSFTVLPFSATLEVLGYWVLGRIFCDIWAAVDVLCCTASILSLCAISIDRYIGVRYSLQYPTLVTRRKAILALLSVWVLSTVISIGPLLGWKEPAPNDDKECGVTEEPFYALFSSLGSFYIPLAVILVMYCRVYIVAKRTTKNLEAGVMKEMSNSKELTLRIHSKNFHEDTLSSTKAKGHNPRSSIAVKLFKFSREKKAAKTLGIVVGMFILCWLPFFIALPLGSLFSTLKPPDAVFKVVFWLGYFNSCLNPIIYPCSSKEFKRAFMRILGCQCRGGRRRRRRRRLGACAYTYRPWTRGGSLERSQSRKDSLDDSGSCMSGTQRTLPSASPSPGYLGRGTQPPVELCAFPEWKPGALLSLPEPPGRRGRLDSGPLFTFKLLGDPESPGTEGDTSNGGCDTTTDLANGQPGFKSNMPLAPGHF
Test: Antagonist potency against the alpha-1B adrenergic receptor determined in isolated rat spleen
Format: functional, tissue-based
COc1ccccc1N1CCN(CC2Nc3cc(Cl)ccc3S(=O)(=O)N2)CC1 (configuration not stated) gave a pKb of 5.09. Work on COc1ccccc1N1CCN(CC2=NS(=O)(=O)c3ccccc3N2)CC1 yielded a pKb of 5.46. Compound COc1ccccc1N1CCN(CC2Nc3ccccc3S(=O)(=O)N2)CC1 (configuration not stated) has a pKb of 5.97. Work on COc1ccccc1N1CCN(CC2Nc3cc(C)ccc3S(=O)(=O)N2)CC1 (configuration not stated) yielded a pKb of 6.24. COc1ccccc1N1CCN(CC2=NS(=O)(=O)c3ccc(C)cc3N2)CC1 showed a pKb of 6.05. Work on COc1ccccc1N1CCN(CC2=NS(=O)(=O)c3ccc(Cl)cc3N2)CC1 yielded a pKb of 6.17. COc1ccccc1N1CCN(CCN2C(=O)CC3(CCCC3)CC2=O)CC1 [BMY-7378] gave a pKb of 7.48.

Molecular target: T4, Alpha-1A adrenergic receptor (Rattus norvegicus) (UniProt P43140)
T4 sequence (whole entry): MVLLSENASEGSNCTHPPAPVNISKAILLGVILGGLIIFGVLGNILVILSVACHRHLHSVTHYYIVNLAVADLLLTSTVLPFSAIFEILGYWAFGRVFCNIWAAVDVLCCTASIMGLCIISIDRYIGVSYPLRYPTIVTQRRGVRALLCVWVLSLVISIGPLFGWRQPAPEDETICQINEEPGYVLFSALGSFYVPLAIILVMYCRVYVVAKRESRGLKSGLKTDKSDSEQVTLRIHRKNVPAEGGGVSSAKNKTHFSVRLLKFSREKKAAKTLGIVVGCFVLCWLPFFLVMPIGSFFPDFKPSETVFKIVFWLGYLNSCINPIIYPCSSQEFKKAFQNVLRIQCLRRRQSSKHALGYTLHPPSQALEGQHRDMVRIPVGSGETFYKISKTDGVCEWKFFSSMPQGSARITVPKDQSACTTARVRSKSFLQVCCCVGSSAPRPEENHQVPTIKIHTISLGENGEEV
Test: Antagonist potency against the alpha-1A adrenergic receptor was determined in isolated rat prostatic vas deferens
Format: functional, tissue-based
In the case of COc1ccccc1N1CCN(CC2Nc3cc(Cl)ccc3S(=O)(=O)N2)CC1 (configuration not stated), the pKb is reported as 5.05. For COc1ccccc1N1CCN(CC2=NS(=O)(=O)c3ccccc3N2)CC1, the pKb was < 5. COc1ccccc1N1CCN(CC2Nc3ccccc3S(=O)(=O)N2)CC1 (configuration not stated) gave a pKb of 5.81. With COc1ccccc1N1CCN(CC2Nc3cc(C)ccc3S(=O)(=O)N2)CC1 (configuration not stated) the pKb was 6. With COc1ccccc1N1CCN(CC2=NS(=O)(=O)c3ccc(C)cc3N2)CC1 the pKb was < 5. For COc1ccccc1N1CCN(CC2=NS(=O)(=O)c3ccc(Cl)cc3N2)CC1, the pKb was 5.28.

Molecular target: T5, Alpha-1D adrenergic receptor (Rattus norvegicus) (UniProt P23944)
T5 sequence (whole entry): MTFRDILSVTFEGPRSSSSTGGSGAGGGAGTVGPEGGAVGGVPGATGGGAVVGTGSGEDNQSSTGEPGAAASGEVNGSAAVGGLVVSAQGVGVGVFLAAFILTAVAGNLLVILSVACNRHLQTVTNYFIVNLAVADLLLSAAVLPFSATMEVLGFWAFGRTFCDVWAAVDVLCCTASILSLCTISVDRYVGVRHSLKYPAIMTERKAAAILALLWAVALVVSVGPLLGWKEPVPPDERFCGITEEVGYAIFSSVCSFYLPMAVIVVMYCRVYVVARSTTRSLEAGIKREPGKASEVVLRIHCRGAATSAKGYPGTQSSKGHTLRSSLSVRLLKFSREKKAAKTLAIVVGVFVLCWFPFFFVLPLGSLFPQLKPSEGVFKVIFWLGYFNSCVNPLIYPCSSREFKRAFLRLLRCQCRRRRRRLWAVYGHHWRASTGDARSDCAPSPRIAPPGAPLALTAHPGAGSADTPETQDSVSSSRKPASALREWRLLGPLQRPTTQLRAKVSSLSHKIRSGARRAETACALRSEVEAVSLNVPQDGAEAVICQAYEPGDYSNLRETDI
Test: Antagonist potency against the alpha-1D adrenergic receptor was determined in isolated rat thoracic aorta
Format: functional, tissue-based
For COc1ccccc1N1CCN(CC2Nc3cc(Cl)ccc3S(=O)(=O)N2)CC1 (configuration not stated), the pKb was 5. For COc1ccccc1N1CCN(CC2=NS(=O)(=O)c3ccccc3N2)CC1, the pKb was 7.59. With COc1ccccc1N1CCN(CC2Nc3ccccc3S(=O)(=O)N2)CC1 (configuration not stated) the pKb was 5.34. COc1ccccc1N1CCN(CC2Nc3cc(C)ccc3S(=O)(=O)N2)CC1 (configuration not stated) gave a pKb of 5.98. COc1ccccc1N1CCN(CC2=NS(=O)(=O)c3ccc(C)cc3N2)CC1 showed a pKb of 5.5. Compound COc1ccccc1N1CCN(CC2=NS(=O)(=O)c3ccc(Cl)cc3N2)CC1 has a pKb of 7.75.

Tested on: not listed separately
Test: Selectivity towards 5-hydroxytryptamine 1A and alpha 1D adrenergic receptors was determined
With COc1ccccc1N1CCN(CC2Nc3cc(Cl)ccc3S(=O)(=O)N2)CC1 (configuration not stated) the Selectivity was 1100. With COc1ccccc1N1CCN(CC2=NS(=O)(=O)c3ccccc3N2)CC1 the Selectivity was < 0.03. Compound COc1ccccc1N1CCN(CC2Nc3ccccc3S(=O)(=O)N2)CC1 (configuration not stated) has a Selectivity of 275. For COc1ccccc1N1CCN(CC2Nc3cc(C)ccc3S(=O)(=O)N2)CC1 (configuration not stated), the Selectivity was < 10. Compound COc1ccccc1N1CCN(CC2=NS(=O)(=O)c3ccc(Cl)cc3N2)CC1 has a Selectivity of 0.38.
